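Interpolation was linear, between the two tested concentrations surrounding the appropriate level; five concentrations were tested over 48 hours in 96-well plates. GI50 = concentration required for 50% inhibition of growth.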 Activity calls are given as the source filed them. Cut-off read from the data, not from the text of the source: active = GI50 up to about 1.1 µM and inactive = higher.
Experiments:
Test in all cases: inhibition of tumour cell growth, NCI panel, 48 h
[1] = test system: COLO 205
[2] = test system: EKVX
[3] = test system: HOP-92
[4] = test system: LOX IMVI
[5] = test system: MOLT-4
[6] = test system: Malme-3M
[7] = test system: NCI-H23
[8] = test system: OVCAR-4
[9] = test system: SF-295
[10] = test system: SF-539
[11] = test system: SK-OV-3
[12] = test system: SW-620
[13] = test system: TK-10
[14] = test system: U-251
[15] = test system: UACC-62
[16] = test system: UO-31
[17] = test system: CAKI-1
[18] = test system: MCF7
[19] = test system: NCI/ADR-RES

With CC1(C)CCCC2(C)C3C(O)CC2(C)C(O)C31 (stereo unspecified) the GI50 [1] was > 100 µM (inactive), the GI50 [2] was > 100 µM (inactive) and the GI50 [3] was > 10 µM (inactive). For the same molecule, the GI50 [4] was > 100 µM (inactive), the GI50 [5] was > 100 µM (inactive) and the GI50 [6] was > 100 µM (inactive). The GI50 [7] was > 100 µM (inactive), the GI50 [8] was > 100 µM (inactive) and the GI50 [9] was > 100 µM (inactive). The GI50 [10] was > 100 µM (inactive), the GI50 [11] was > 100 µM (inactive) and the GI50 [12] was > 100 µM (inactive). The GI50 [13] was > 100 µM (inactive), the GI50 [14] was > 100 µM (inactive) and the GI50 [15] was > 100 µM (inactive). For the same molecule, the GI50 [16] was > 100 µM (inactive).

In the case of CCOC(=O)Nc1sc2c(c1C#N)CCCC2, the GI50 [17] is reported as > 100 µM (inactive), the GI50 [1] is reported as > 100 µM (inactive) and the GI50 [2] is reported as 25.9 µM (inactive). The GI50 [3] was 47.3 µM (inactive), the GI50 [4] was 63.8 µM (inactive) and the GI50 [18] was > 100 µM (inactive). For the same molecule, the GI50 [5] was 62.5 µM (inactive), the GI50 [6] was > 100 µM (inactive) and the GI50 [7] was > 100 µM (inactive). For the same molecule, the GI50 [8] was > 100 µM (inactive), the GI50 [9] was > 100 µM (inactive) and the GI50 [11] was > 100 µM (inactive). The GI50 [12] was > 100 µM (inactive), the GI50 [13] was > 100 µM (inactive) and the GI50 [14] was > 100 µM (inactive). The GI50 [15] was 67.1 µM (inactive) and the GI50 [16] was 27.7 µM (inactive).

With O=C(Nc1cc(Cl)c(Cl)cc1Cl)C(=O)C(C(=O)c1ccc(Cl)c(Cl)c1)C1OC(=O)c2ccccc21 (stereo unspecified) the GI50 [17] was 16.1 µM (inactive), the GI50 [1] was 15 µM (inactive) and the GI50 [2] was 19.6 µM (inactive). For the same molecule, the GI50 [3] was 11 µM (inactive), the GI50 [4] was 16.4 µM (inactive) and the GI50 [5] was 0.187 µM (active). The GI50 [6] was > 10 µM (inactive), the GI50 [7] was > 10 µM (inactive) and the GI50 [8] was 22.9 µM (inactive). For the same molecule, the GI50 [9] was 11.9 µM (inactive), the GI50 [10] was 2.67 µM (inactive) and the GI50 [11] was 26.1 µM (inactive). For the same molecule, the GI50 [12] was 15.6 µM (inactive), the GI50 [13] was 26.1 µM (inactive) and the GI50 [14] was 15.3 µM (inactive). The GI50 [15] was 16.1 µM (inactive) and the GI50 [16] was 16.8 µM (inactive).

In the case of O=C1C(=Cc2c(O)cc(O)cc2O)C(=O)c2ccccc21, the GI50 [17] is reported as > 45.9 µM (inactive), the GI50 [1] is reported as > 41.5 µM (inactive) and the GI50 [2] is reported as > 79.8 µM (inactive). The GI50 [3] was > 38.5 µM (inactive), the GI50 [4] was 15.4 µM (inactive) and the GI50 [5] was 39.8 µM (inactive). For the same molecule, the GI50 [6] was > 44.6 µM (inactive), the GI50 [7] was > 39.4 µM (inactive) and the GI50 [8] was > 48.2 µM (inactive). The GI50 [9] was > 41.9 µM (inactive), the GI50 [10] was > 42.7 µM (inactive) and the GI50 [11] was > 100 µM (inactive). The GI50 [12] was > 42.1 µM (inactive), the GI50 [13] was > 46.6 µM (inactive) and the GI50 [14] was > 42.9 µM (inactive). The GI50 [15] was > 40.5 µM (inactive) and the GI50 [16] was > 100 µM (inactive).

In the case of N#C/C(=C1\OC(=N)C(c2ccccc2)C1=O)c1ccccc1 (stereo unspecified), the GI50 [17] is reported as 30.6 µM (inactive), the GI50 [1] is reported as 22.6 µM (inactive) and the GI50 [2] is reported as 36.5 µM (inactive). For the same molecule, the GI50 [3] was 33.8 µM (inactive), the GI50 [4] was 33.6 µM (inactive) and the GI50 [5] was 18.7 µM (inactive). The GI50 [6] was 18.9 µM (inactive), the GI50 [7] was > 10 µM (inactive) and the GI50 [8] was 40.1 µM (inactive). For the same molecule, the GI50 [9] was > 100 µM (inactive), the GI50 [10] was > 31.6 µM (inactive) and the GI50 [11] was > 100 µM (inactive). The GI50 [12] was 23.1 µM (inactive), the GI50 [13] was 29.7 µM (inactive) and the GI50 [14] was > 100 µM (inactive). The GI50 [15] was 22.2 µM (inactive) and the GI50 [16] was 19.6 µM (inactive).

With COc1ccc(NC(=O)CC/C(CC(=O)C(C)(C)C)=N\NC(=O)C(N)=O)cc1 the GI50 [17] was > 100 µM (inactive), the GI50 [1] was > 100 µM (inactive) and the GI50 [2] was > 100 µM (inactive). For the same molecule, the GI50 [3] was > 100 µM (inactive), the GI50 [4] was > 100 µM (inactive) and the GI50 [5] was > 100 µM (inactive). The GI50 [6] was > 100 µM (inactive), the GI50 [7] was > 100 µM (inactive) and the GI50 [8] was > 100 µM (inactive). For the same molecule, the GI50 [9] was > 100 µM (inactive), the GI50 [10] was > 100 µM (inactive) and the GI50 [11] was > 100 µM (inactive). For the same molecule, the GI50 [12] was > 100 µM (inactive), the GI50 [14] was > 100 µM (inactive) and the GI50 [15] was > 100 µM (inactive). For the same molecule, the GI50 [16] was > 100 µM (inactive).

O=C1CN(c2ccccc2)C(=O)CN1CCN1CC(=O)N(c2ccccc2)CC1=O was tested, and the GI50 [17] was > 100 µM (inactive), the GI50 [1] was > 100 µM (inactive) and the GI50 [2] was > 100 µM (inactive). For the same molecule, the GI50 [3] was > 100 µM (inactive), the GI50 [18] was > 100 µM (inactive) and the GI50 [5] was > 10 µM (inactive). The GI50 [6] was > 100 µM (inactive), the GI50 [7] was > 100 µM (inactive) and the GI50 [8] was > 100 µM (inactive). For the same molecule, the GI50 [9] was > 100 µM (inactive), the GI50 [10] was > 100 µM (inactive) and the GI50 [11] was > 100 µM (inactive). The GI50 [12] was > 100 µM (inactive), the GI50 [13] was > 100 µM (inactive) and the GI50 [14] was > 100 µM (inactive). The GI50 [15] was > 100 µM (inactive) and the GI50 [16] was > 100 µM (inactive).

For OCC1OC(c2ccccc2)CC1O (stereo unspecified), the GI50 [17] was > 100 µM (inactive), the GI50 [1] was > 100 µM (inactive) and the GI50 [2] was > 100 µM (inactive). For the same molecule, the GI50 [4] was > 100 µM (inactive), the GI50 [18] was > 100 µM (inactive) and the GI50 [5] was > 100 µM (inactive). For the same molecule, the GI50 [19] was > 100 µM (inactive), the GI50 [8] was > 100 µM (inactive) and the GI50 [9] was > 100 µM (inactive). The GI50 [10] was > 100 µM (inactive), the GI50 [11] was > 100 µM (inactive) and the GI50 [12] was > 100 µM (inactive). The GI50 [13] was > 100 µM (inactive), the GI50 [14] was > 100 µM (inactive) and the GI50 [15] was > 100 µM (inactive). The GI50 [16] was > 100 µM (inactive).

For CN1CCc2cc3c4cc2C1Cc1ccc(cc1)Oc1cc(ccc1O)CC1c2c(cc(O)c(c2O4)O3)CCN1C (stereo unspecified), the GI50 [17] was 10.5 µM (inactive), the GI50 [1] was 5.65 µM (inactive) and the GI50 [2] was 7.08 µM (inactive). The GI50 [3] was 2.52 µM (inactive), the GI50 [4] was 1.66 µM (inactive) and the GI50 [5] was 2.03 µM (inactive). For the same molecule, the GI50 [6] was 1.81 µM (inactive), the GI50 [7] was 3.6 µM (inactive) and the GI50 [8] was 2.22 µM (inactive). The GI50 [9] was 1.56 µM (inactive), the GI50 [10] was 1.67 µM (inactive) and the GI50 [11] was 3.1 µM (inactive). The GI50 [12] was 2.22 µM (inactive), the GI50 [13] was 10.6 µM (inactive) and the GI50 [14] was 1.69 µM (inactive). For the same molecule, the GI50 [15] was 2.02 µM (inactive) and the GI50 [16] was 3.44 µM (inactive).

Cc1ccc(S(=O)(=O)OCC/C(=C\[Si](C)(C)C)c2ccccc2)cc1 was tested, and the GI50 [17] was > 100 µM (inactive), the GI50 [1] was > 100 µM (inactive) and the GI50 [2] was > 100 µM (inactive). The GI50 [3] was > 100 µM (inactive), the GI50 [4] was > 100 µM (inactive) and the GI50 [5] was > 100 µM (inactive). The GI50 [6] was > 100 µM (inactive), the GI50 [7] was > 100 µM (inactive) and the GI50 [8] was > 100 µM (inactive). For the same molecule, the GI50 [9] was > 100 µM (inactive), the GI50 [10] was > 100 µM (inactive) and the GI50 [11] was > 100 µM (inactive). For the same molecule, the GI50 [12] was > 100 µM (inactive), the GI50 [13] was > 100 µM (inactive) and the GI50 [14] was > 100 µM (inactive). For the same molecule, the GI50 [15] was > 100 µM (inactive) and the GI50 [16] was > 100 µM (inactive).

CCc1c(OC(C)=O)c2c(NC3OCC(OC(C)=O)C(OC(C)=O)C3OC(C)=O)nc(SC)nc2oc1=O (stereo unspecified) was tested, and the GI50 [17] was > 100 µM (inactive), the GI50 [1] was > 100 µM (inactive) and the GI50 [2] was > 100 µM (inactive). The GI50 [3] was > 100 µM (inactive), the GI50 [4] was > 100 µM (inactive) and the GI50 [5] was > 100 µM (inactive). The GI50 [6] was > 100 µM (inactive), the GI50 [7] was > 100 µM (inactive) and the GI50 [8] was > 100 µM (inactive). The GI50 [9] was > 100 µM (inactive), the GI50 [10] was > 100 µM (inactive) and the GI50 [11] was > 100 µM (inactive). The GI50 [12] was > 100 µM (inactive), the GI50 [13] was > 100 µM (inactive) and the GI50 [14] was > 100 µM (inactive). The GI50 [15] was > 100 µM (inactive) and the GI50 [16] was > 100 µM (inactive).

For CCN(CC)CCCNC(=O)c1ccc([N+](=O)[O-])cc1O, the GI50 [17] was > 100 µM (inactive), the GI50 [1] was > 100 µM (inactive) and the GI50 [2] was > 100 µM (inactive). The GI50 [3] was > 100 µM (inactive), the GI50 [4] was > 100 µM (inactive) and the GI50 [5] was > 100 µM (inactive). For the same molecule, the GI50 [6] was > 100 µM (inactive), the GI50 [7] was > 100 µM (inactive) and the GI50 [8] was > 100 µM (inactive). For the same molecule, the GI50 [9] was > 100 µM (inactive), the GI50 [10] was > 100 µM (inactive) and the GI50 [11] was > 100 µM (inactive). The GI50 [12] was > 100 µM (inactive), the GI50 [13] was > 100 µM (inactive) and the GI50 [14] was > 100 µM (inactive). For the same molecule, the GI50 [15] was > 100 µM (inactive) and the GI50 [16] was > 100 µM (inactive).

— ChEMBL document CHEMBL1201862, “PubChem BioAssay data set” (2004)
